Values after ≈ are worked out from the molar mass of the structure shown.
Legend:
Type in all cases: functional
Staphylococcus aureus [1] = test: Antibacterial activity against methicillin-resistant Staphylococcus aureus by CLSI M7-A7 broth microdilution method
Streptococcus viridans [2] = test: Antibacterial activity against penicillin-susceptible Streptococcus viridans assessed as susceptible isolates by CLSI M7-A7 broth microdilution method
Enterococcus faecalis [3] = test: Antibacterial activity against vancomycin-susceptible Enterococcus faecalis assessed as resistant isolates by CLSI M7-A7 broth microdilution method
Staphylococcus aureus [4] = test: Antibacterial activity against coagulase-negative and oxacillin-susceptible Staphylococcus aureus assessed as susceptible isolates by CLSI M7-A7 broth microdilution method
Streptococcus agalactiae [5] = test: Antibacterial activity against erythromycin-nonsusceptible Streptococcus agalactiae assessed as susceptible isolates by CLSI M7-A7 broth microdilution method
Streptococcus viridans [6] = test: Antibacterial activity against penicillin-nonsusceptible Streptococcus viridans by CLSI M7-A7 broth microdilution method
Streptococcus agalactiae [7] = test: Antibacterial activity against erythromycin-nonsusceptible Streptococcus agalactiae by CLSI M7-A7 broth microdilution method
Enterococcus faecalis [8] = test: Antibacterial activity against vancomycin-resistant Enterococcus faecalis by CLSI M7-A7 broth microdilution method
Streptococcus pneumoniae [9] = test: Antibacterial activity against penicillin-resistant Streptococcus pneumoniae by CLSI M7-A7 broth microdilution method
Streptococcus pyogenes [10] = test: Antibacterial activity against erythromycin-susceptible Streptococcus pyogenes assessed as susceptible isolates by CLSI M7-A7 broth microdilution method
Enterococcus faecalis [11] = test: Antibacterial activity against vancomycin-susceptible Enterococcus faecalis assessed as susceptible isolates by CLSI M7-A7 broth microdilution method
Staphylococcus aureus [12] = test: Antibacterial activity against methicillin-susceptible Staphylococcus aureus by CLSI M7-A7 broth microdilution method
Enterococcus faecium [13] = test: Antibacterial activity against vancomycin-resistant Enterococcus faecium assessed as susceptible isolates by CLSI M7-A7 broth microdilution method
Enterococcus faecalis [14] = test: Antibacterial activity against vancomycin-resistant Enterococcus faecalis assessed as resistant isolates by CLSI M7-A7 broth microdilution method
Streptococcus pyogenes [15] = test: Antibacterial activity against erythromycin-nonsusceptible Streptococcus pyogenes by CLSI M7-A7 broth microdilution method
Enterococcus faecium [16] = test: Antibacterial activity against vancomycin-resistant Enterococcus faecium by CLSI M7-A7 broth microdilution method
Staphylococcus aureus [17] = test: Antibacterial activity against coagulase-negative and oxacillin-resistant Staphylococcus aureus assessed as susceptible isolates by CLSI M7-A7 broth microdilution method
Staphylococcus aureus [18] = test: Antibacterial activity against methicillin-resistant Staphylococcus aureus assessed as susceptible isolates by CLSI M7-A7 broth microdilution method
Staphylococcus aureus [19] = test: Antibacterial activity against methicillin-susceptible Staphylococcus aureus assessed as susceptible isolates by CLSI M7-A7 broth microdilution method
Staphylococcus aureus [20] = test: Antibacterial activity against coagulase-negative and oxacillin-resistant Staphylococcus aureus by CLSI M7-A7 broth microdilution method
Streptococcus pneumoniae [21] = test: Antibacterial activity against penicillin-susceptible Streptococcus pneumoniae by CLSI M7-A7 broth microdilution method
Streptococcus pyogenes [22] = test: Antibacterial activity against erythromycin-susceptible Streptococcus pyogenes by CLSI M7-A7 broth microdilution method
Enterococcus faecalis [23] = test: Antibacterial activity against vancomycin-susceptible Enterococcus faecalis by CLSI M7-A7 broth microdilution method
Enterococcus faecium [24] = test: Antibacterial activity against vancomycin-resistant Enterococcus faecium assessed as resistant isolates by CLSI M7-A7 broth microdilution method
Staphylococcus aureus [25] = test: Antibacterial activity against coagulase-negative and oxacillin-susceptible Staphylococcus aureus by CLSI M7-A7 broth microdilution method
Streptococcus viridans [26] = test: Antibacterial activity against penicillin-susceptible Streptococcus viridans by CLSI M7-A7 broth microdilution method
Streptococcus pyogenes [27] = test: Antibacterial activity against erythromycin-nonsusceptible Streptococcus pyogenes assessed as susceptible isolates by CLSI M7-A7 broth microdilution method
Streptococcus agalactiae [28] = test: Antibacterial activity against erythromycin-susceptible Streptococcus agalactiae assessed as susceptible isolates by CLSI M7-A7 broth microdilution method
Streptococcus agalactiae [29] = test: Antibacterial activity against erythromycin-susceptible Streptococcus agalactiae by CLSI M7-A7 broth microdilution method
Streptococcus viridans [30] = test: Antibacterial activity against penicillin-nonsusceptible Streptococcus viridans assessed as resistant isolates by CLSI M7-A7 broth microdilution method
Streptococcus viridans [31] = test: Antibacterial activity against penicillin-nonsusceptible Streptococcus viridans assessed as susceptible isolates by CLSI M7-A7 broth microdilution method
Streptococcus pneumoniae [32] = test: Antibacterial activity against penicillin-susceptible Streptococcus pneumoniae assessed as susceptible isolates by CLSI M7-A7 broth microdilution method
Moraxella catarrhalis = test: Antibacterial activity against beta lactamase-positive Moraxella catarrhalis by CLSI M7-A7 broth microdilution method
Pasteurella multocida = test: Antibacterial activity against Pasteurella multocida by CLSI M7-A7 broth microdilution method
Streptococcus viridans [33] = test: Antibacterial activity against penicillin-susceptible Streptococcus viridans assessed as resistant isolates by CLSI M7-A7 broth microdilution method

## CCCCCCCCCC(=O)N[C@@H](Cc1c[nH]c2ccccc12)C(=O)N[C@H](CC(N)=O)C(=O)N[C@@H](CC(=O)O)C(=O)N[C@@H]1C(=O)NCC(=O)N[C@@H](CCCN)C(=O)N[C@@H](CC(=O)O)C(=O)N[C@H](C)C(=O)N[C@@H](CC(=O)O)C(=O)NCC(=O)N[C@H](CO)C(=O)N[C@@H]([C@H](C)CC(=O)O)C(=O)N[C@@H](CC(=O)c2ccccc2N)C(=O)O[C@@H]1C
Staphylococcus aureus [1]
  MIC50: 0.25 µg/mL (≈ 0.154 µM)
  MIC90: 0.5 µg/mL (≈ 0.309 µM)
Streptococcus viridans [2]
  Activity: 100%
Enterococcus faecalis [3]
  Activity: 0%
Staphylococcus aureus [4]
  Activity: 100%
Streptococcus agalactiae [5]
  Activity: 100%
Streptococcus viridans [6]
  MIC50: 0.25 µg/mL (≈ 0.154 µM)
  MIC90: 0.5 µg/mL (≈ 0.309 µM)
Streptococcus agalactiae [7]
  MIC50: 0.12 µg/mL (≈ 0.074 µM)
  MIC90: 0.25 µg/mL (≈ 0.154 µM)
Enterococcus faecalis [8]
  MIC50: 0.5 µg/mL (≈ 0.309 µM)
  MIC90: 1 µg/mL (≈ 0.617 µM)
Streptococcus pneumoniae [9]
  MIC50: 0.06 µg/mL (≈ 0.037 µM)
  MIC90: 0.12 µg/mL (≈ 0.074 µM)
Streptococcus pyogenes [10]
  Activity: 100%
Enterococcus faecalis [11]
  Activity: 100%
Staphylococcus aureus [12]
  MIC50: 0.25 µg/mL (≈ 0.154 µM)
  MIC90: 0.5 µg/mL (≈ 0.309 µM)
Enterococcus faecium [13]
  Activity: 100%
Enterococcus faecalis [14]
  Activity: 0%
Streptococcus pyogenes [15]
  MIC: ≤ 0.03 µg/mL
  MIC50: ≤ 0.03 µg/mL
  MIC90: 0.25 µg/mL (≈ 0.154 µM)
Enterococcus faecium [16]
  MIC50: 2 µg/mL (≈ 1.23 µM)
  MIC90: 4 µg/mL (≈ 2.47 µM)
Staphylococcus aureus [17]
  Activity: 99.7%
Staphylococcus aureus [18]
  Activity: 99.2%
Staphylococcus aureus [19]
  Activity: 99.4%
Staphylococcus aureus [20]
  MIC50: 0.5 µg/mL (≈ 0.309 µM)
  MIC90: 0.5 µg/mL (≈ 0.309 µM)
Streptococcus pneumoniae [21]
  MIC50: 0.06 µg/mL (≈ 0.037 µM)
  MIC90: 0.12 µg/mL (≈ 0.074 µM)
Streptococcus pyogenes [22]
  MIC: ≤ 0.03 µg/mL
  MIC50: ≤ 0.03 µg/mL
  MIC90: 0.06 µg/mL (≈ 0.037 µM)
Enterococcus faecalis [23]
  MIC50: 1 µg/mL (≈ 0.617 µM)
  MIC90: 1 µg/mL (≈ 0.617 µM)
Enterococcus faecium [24]
  Activity: 0%
Staphylococcus aureus [25]
  MIC50: 0.25 µg/mL (≈ 0.154 µM)
  MIC90: 0.5 µg/mL (≈ 0.309 µM)
Streptococcus viridans [26]
  MIC50: 0.25 µg/mL (≈ 0.154 µM)
  MIC90: 0.5 µg/mL (≈ 0.309 µM)
Streptococcus pyogenes [27]
  Activity: 100%
Streptococcus agalactiae [28]
  Activity: 100%
Streptococcus agalactiae [29]
  MIC50: 0.12 µg/mL (≈ 0.074 µM)
  MIC90: 0.12 µg/mL (≈ 0.074 µM)
Streptococcus viridans [30]
  Activity: 0%
Streptococcus viridans [31]
  Activity: 100%

## CC(=O)NC[C@H]1CN(c2ccc(N3CCOCC3)c(F)c2)C(=O)O1 [LINEZOLID]
Staphylococcus aureus [1]
  MIC50: 2 µg/mL (≈ 5.93 µM)
  MIC90: 2 µg/mL (≈ 5.93 µM)
Streptococcus viridans [2]
  Activity: 100%
Enterococcus faecalis [3]
  Activity: 0%
Staphylococcus aureus [4]
  Activity: 100%
Streptococcus agalactiae [5]
  Activity: 100%
Streptococcus pneumoniae [32]
  Activity: 100%
Streptococcus viridans [6]
  MIC50: 1 µg/mL (≈ 2.96 µM)
  MIC90: 1 µg/mL (≈ 2.96 µM)
Streptococcus agalactiae [7]
  MIC50: 1 µg/mL (≈ 2.96 µM)
  MIC90: 1 µg/mL (≈ 2.96 µM)
Enterococcus faecalis [8]
  MIC50: 2 µg/mL (≈ 5.93 µM)
  MIC90: 2 µg/mL (≈ 5.93 µM)
Streptococcus pyogenes [10]
  Activity: 100%
Enterococcus faecalis [11]
  Activity: 100%
Staphylococcus aureus [12]
  MIC50: 2 µg/mL (≈ 5.93 µM)
  MIC90: 2 µg/mL (≈ 5.93 µM)
Moraxella catarrhalis
  MIC50: 4 µg/mL (≈ 11.9 µM)
  MIC90: 4 µg/mL (≈ 11.9 µM)
Enterococcus faecium [13]
  Activity: 100%
Enterococcus faecalis [14]
  Activity: 0%
Streptococcus pyogenes [15]
  MIC: 1 µg/mL (≈ 2.96 µM)
  MIC50: 1 µg/mL (≈ 2.96 µM)
  MIC90: 1 µg/mL (≈ 2.96 µM)
Enterococcus faecium [16]
  MIC50: 2 µg/mL (≈ 5.93 µM)
  MIC90: 2 µg/mL (≈ 5.93 µM)
Staphylococcus aureus [17]
  Activity: 99.3%
Staphylococcus aureus [19]
  Activity: 100%
Staphylococcus aureus [20]
  MIC50: 1 µg/mL (≈ 2.96 µM)
  MIC90: 2 µg/mL (≈ 5.93 µM)
Streptococcus pyogenes [22]
  MIC50: 1 µg/mL (≈ 2.96 µM)
  MIC90: 1 µg/mL (≈ 2.96 µM)
Enterococcus faecalis [23]
  MIC50: 2 µg/mL (≈ 5.93 µM)
  MIC90: 2 µg/mL (≈ 5.93 µM)
Enterococcus faecium [24]
  Activity: 0%
Staphylococcus aureus [25]
  MIC50: 1 µg/mL (≈ 2.96 µM)
  MIC90: 2 µg/mL (≈ 5.93 µM)
Streptococcus viridans [26]
  MIC50: 1 µg/mL (≈ 2.96 µM)
  MIC90: 1 µg/mL (≈ 2.96 µM)
Streptococcus pyogenes [27]
  Activity: 100%
Streptococcus agalactiae [28]
  Activity: 100%
Streptococcus agalactiae [29]
  MIC: 1 µg/mL (≈ 2.96 µM)
  MIC50: 1 µg/mL (≈ 2.96 µM)
  MIC90: 1 µg/mL (≈ 2.96 µM)
Pasteurella multocida
  MIC50: 4 µg/mL (≈ 11.9 µM)
  MIC90: > 4 µg/mL
Streptococcus viridans [30]
  Activity: 0%
Streptococcus viridans [31]
  Activity: 100%
Streptococcus viridans [33]
  Activity: 0%

Reference: ChEMBL document CHEMBL1671626, “In vitro profiling of ceftaroline against a collection of recent bacterial clinical isolates from across the United States” (2008)
